Assay results: US11691969B2, “Pyridazinones as PARP7 inhibtors” (Ribon Therapeutics, Inc., priority 2019, dated 2023)

Each compound was assayed against PARP7 (Homo sapiens (Human), UniProt Q7Z3E1) (assay: TR-FRET assay: displacement of biotinylated Probe A from the TIPARP active site (Enzymatic Assay for Inhibition of PARP7)). Conditions: TIPARP 6 nM, Probe A 2 nM, 25° C.
Format: binding
Experimental: Example A. Enzymatic Assay for Inhibition of PARP7
Displacement of Probe A, a biotinylated probe binding to the TIPARP active site, was measured using a time-resolved fluorescence energy transfer (TR-FRET) assay. 20 nL of a dose response curve of each test compound was spotted in black 384-well polystyrene proxiplates (Perkin Elmer) using a Mosquito (TTP Labtech). Reactions were performed in a 8 μl volume by adding 6 μL of TIPARP and Probe A in assay buffer (20 mM HEPES pH=8, 100 mM NaCl, 0.1% bovine serum albumin, 2 mM DTT and 0.002% Tween20), incubating with test compound at 25° C. for 30 min, then adding 2 μL of ULight-anti 6×His and LANCE Eu-W1024 labeled streptavidin (Perkin Elmer). The final concentrations of TIPARP and Probe A were 6 nM and 2 nM, respectively. The final concentration of ULight-anti 6×His and LANCE Eu-W1024 labeled streptavidin were 4 nM and 0.25 nM, respectively. Reactions were incubated at 25° C. for an additional 30 min, then read on an Envision platereader equipped with a LANCE/DELFIA top mirror (Perkin Elmer) using excitation of 320 nm and emission of 615 nm and […] with a […]. The ratio of the 665/615 nm emission were calculated for each well to determine the amount of complex of TIPARP and Probe Ain each well. Control wells containing a negative control of 0.25% DMSO vehicle or a positive control of 100 μM 5-(5-(piperidin-4-yloxy)isoindolin-2-yl)-4-(trifluoromethyl)pyridazin-3(2H)-one were used to calculate the % inhibition as described below:
[formula] where TRFcmpd is the TR-FRET ratio from the compound treated well, TRFmin is the TR-FRET ratio from the 5-(5-(piperidin-4-yloxy)isoindolin-2-yl)-4-(trifluoromethyl)pyridazin-3(2H)-one—treated positive control well and TRFmax is the TR-FRET ratio from the DMSO-treated negative control well. The % inhibition values were plotted as a function of compound concentration and the following 4-parameter fit was applied to derive the IC50 values:
[formula] where top and bottom are normally allowed to float, but may be fixed at 100 or 0 respectively in a 3-parameter fit. The Hill Coefficient is normally allowed to float but may also be fixed at 1 in a 3-parameter fit. Y is the % inhibition and X is the compound concentration. Synthesis of Probe A

PARP7, sequence (Q7Z3E1 whole entry): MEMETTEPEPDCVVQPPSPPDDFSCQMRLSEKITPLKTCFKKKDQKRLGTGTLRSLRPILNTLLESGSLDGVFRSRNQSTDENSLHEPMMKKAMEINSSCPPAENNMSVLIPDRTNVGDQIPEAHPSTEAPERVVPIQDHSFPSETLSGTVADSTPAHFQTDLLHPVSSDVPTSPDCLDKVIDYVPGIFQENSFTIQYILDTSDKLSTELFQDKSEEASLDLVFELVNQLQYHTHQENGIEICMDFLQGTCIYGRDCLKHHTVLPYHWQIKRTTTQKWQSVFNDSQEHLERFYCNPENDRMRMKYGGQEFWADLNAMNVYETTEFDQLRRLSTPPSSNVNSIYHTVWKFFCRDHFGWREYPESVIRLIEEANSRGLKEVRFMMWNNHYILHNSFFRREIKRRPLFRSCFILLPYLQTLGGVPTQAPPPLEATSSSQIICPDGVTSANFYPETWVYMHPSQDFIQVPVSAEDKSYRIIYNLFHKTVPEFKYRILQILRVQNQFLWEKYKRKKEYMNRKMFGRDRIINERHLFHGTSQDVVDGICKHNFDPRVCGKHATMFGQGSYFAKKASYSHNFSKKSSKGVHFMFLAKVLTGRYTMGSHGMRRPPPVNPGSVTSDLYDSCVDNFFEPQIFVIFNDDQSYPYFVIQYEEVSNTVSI

| SMILES | IC50 [nM] |
| --- | --- |
| C[C@@H](CO[C@@H]1CCN(C2CCN(c3cnc(C(F)(F)F)cn3)CC2)C1=O)Oc1cn[nH]c(=O)c1C(F)(F)F [Example 31B, 5-(((S)-1-(((R)-2-oxo-1-(1-(5-(trifluoromethyl)pyrazin-2-yl)piperidin-4-yl)pyrrolidin-3-yl)oxy)propan-2-yl)oxy)-4-(trifluoromethyl)pyridazin-3(2H)-one] | 100 to 1000 |
| C[C@@H](CO[C@@H]1CCN(C2CCN(c3ncc(C(F)(F)F)cn3)CC2)C1=O)Nc1cn[nH]c(=O)c1Br [Example 32, 4-bromo-5-(((S)-1-(((R)-2-oxo-1-(1-(5-(trifluoromethyl)pyrimidin-2-yl)piperidin-4-yl)pyrrolidin-3-yl)oxy)propan-2-yl)amino)pyridazin-3(2H)-one] | < 100 |
| N#Cc1ccc(N2CCC(N3CC[C@@H](OCCNc4cn[nH]c(=O)c4C(F)(F)F)C3=O)CC2)nc1 [Example 36A] | < 100 |
| C[C@@H]1CN(C2CCN(c3ncc(C(F)(F)F)cn3)CC2)C(=O)[C@H]1OC[C@H](C)Nc1cn[nH]c(=O)c1C(F)(F)F [Example 37A, 5-(((S)-1-(((3S,4R)-4-methyl-2-oxo-1-(1-(5-(trifluoromethyl)pyrimidin-2-yl)piperidin-4-yl)pyrrolidin-3-yl)oxy)propan-2-yl)amino)-4-(trifluoromethyl)pyridazin-3(2H)-one] | ≥ 1000 |
| C[C@@H](CO[C@@H]1CCN(C2CCN(c3ncc(F)cn3)CC2)C1=O)Nc1cn[nH]c(=O)c1C(F)(F)F [Example 42, 5-(((S)-1-(((R)-1-(1-(5-fluoropyrimidin-2-yl)piperidin-4-yl)-2-oxopyrrolidin-3-yl)oxy)propan-2-yl)amino)-4-(trifluoromethyl)pyridazin-3(2H)-one] | < 100 |
| C[C@@H](CO[C@@H]1CCN([C@H]2[C@@H]3CN(c4ncc(C(F)(F)F)cn4)C[C@@H]32)C1=O)Nc1cn[nH]c(=O)c1C(F)(F)F [Example 43, 5-(((S)-1-(((R)-2-oxo-1-((1R,5S,6s)-3-(5-(trifluoromethyl)pyrimidin-2-yl)-3-azabicyclo[3.1.0]hexan-6-yl)pyrrolidin-3-yl)oxy)propan-2-yl)amino)-4-(trifluoromethyl)pyridazin-3(2H)-one] | < 100 |
| Cc1cnc(N2CCC(N3CC[C@@H](OC[C@H](C)Nc4cn[nH]c(=O)c4C(F)(F)F)C3=O)CC2)nc1 [Example 44, 5-(((S)-1-(((R)-1-(1-(5-methylpyrimidin-2-yl)piperidin-4-yl)-2-oxopyrrolidin-3-yl)oxy)propan-2-yl)amino)-4-(trifluoromethyl)pyridazin-3(2H)-one] | < 100 |
| C[C@@H](CO[C@H]1CCN(C2CCN(c3ncc(C(F)(F)F)cn3)CC2)C1=O)Oc1cn[nH]c(=O)c1Cl [Example 47A, 4-chloro-5-(((S)-1-(((S)-2-oxo-1-(1-(5-(trifluoromethyl)pyrimidin-2-yl)piperidin-4-yl)pyrrolidin-3-yl)oxy)propan-2-yl)oxy)pyridazin-3(2H)-one] | 100 to 1000 |
| C[C@@H](CO[C@@H]1CCN(C2CCN(c3ccc(C#N)cn3)CC2)C1=O)Oc1cn[nH]c(=O)c1Br [Example 48A] | < 100 |
| Cc1cnc(N2CCC(N3CC[C@@H](OC[C@H](C)Oc4cn[nH]c(=O)c4C(F)(F)F)C3=O)CC2)nc1 [Example 49B, 5-(((S)-1-(((R)-1-(1-(5-methylpyrimidin-2-yl)piperidin-4-yl)-2-oxopyrrolidin-3-yl)oxy)propan-2-yl)oxy)-4-(trifluoromethyl)pyridazin-3(2H)-one] | < 100 |
| COC[C@@H](CO[C@H]1CCN(C2CCN(c3ccc(C#N)cn3)CC2)C1=O)Oc1cn[nH]c(=O)c1C(F)(F)F [Example 50A, 6-(4-((S)-3-((S)-3-methoxy-2-((6-oxo-5-(trifluoromethyl)-1,6-dihydropyridazin-4-yl)oxy)propoxy)-2-oxopyrrolidin-1-yl)piperidin-1-yl)nicotinonitrile] | 100 to 1000 |
| COC[C@@H](CO[C@@H]1CCN(C2CCN(c3ccc(C#N)cn3)CC2)C1=O)Oc1cn[nH]c(=O)c1C(F)(F)F [Example 50B, 6-(4-((R)-3-((S)-3-methoxy-2-((6-oxo-5-(trifluoromethyl)-1,6-dihydropyridazin-4-yl)oxy)propoxy)-2-oxopyrrolidin-1-yl)piperidin-1-yl)nicotinonitrile] | < 100 |
| COC[C@@H](CO[C@H]1CCN(C2CCN(c3ncc(C(F)(F)F)cn3)CC2)C1=O)Oc1cn[nH]c(=O)c1C(F)(F)F [Example 51A, 5-(((S)-1-methoxy-3-(((S)-2-oxo-1-(1-(5-(trifluoromethyl)pyrimidin-2-yl)piperidin-4-yl)pyrrolidin-3-yl)oxy)propan-2-yl)oxy)-4-(trifluoromethyl)pyridazin-3(2H)-one] | 100 to 1000 |

Second part, the compound after the results:

| IC50 [nM] | SMILES |
| --- | --- |
| < 100 | C[C@@H](CO[C@H]1CCCN(C2CCN(c3ncc(C(F)(F)F)cn3)CC2)C1=O)Nc1cn[nH]c(=O)c1C(F)(F)F [Example 34A, (S)-3-((S)-2-((6-oxo-5-(trifluoromethyl)-1,6-dihydropyridazin-4-yl)amino)propoCyxy)-1′-(5-(trifluoromethyl)pyrimidin-2-yl)-[1,4′-bipiperidin]-2-one] |
| < 100 | C[C@@H](CO[C@@H]1CCCN(C2CCN(c3ncc(C(F)(F)F)cn3)CC2)C1=O)Nc1cn[nH]c(=O)c1C(F)(F)F [Example 34B, (R)-3-((S)-2-((6-oxo-5-(trifluoromethyl)-1,6-dihydropyridazin-4-yl)amino)propoxy)-1′-(5-(trifluoromethyl)pyrimidin-2-yl)-[1,4′-bipiperidin]-2-one] |
| ≥ 1000 | C[C@@H](CO[C@@H]1C(=O)N(C2CCN(c3ncc(C(F)(F)F)cn3)CC2)CC1(C)C)Nc1cn[nH]c(=O)c1C(F)(F)F [Example 35A, 5-(((S)-1-(((S)-4,4-dimethyl-2-oxo-1-(1-(5-(trifluoromethyl)pyrimidin-2-yl)piperidin-4-yl)pyrrolidin-3-yl)oxy)propan-2-yl)amino)-4-(trifluoromethyl)pyridazin-3(2H)-one] |
| < 100 | C[C@@H](CO[C@H]1C(=O)N(C2CCN(c3ncc(C(F)(F)F)cn3)CC2)CC1(C)C)Nc1cn[nH]c(=O)c1C(F)(F)F [Example 35B, 5-(((S)-1-(((R)-4,4-dimethyl-2-oxo-1-(1-(5-(trifluoromethyl)pyrimidin-2-yl)piperidin-4-yl)pyrrolidin-3-yl)oxy)propan-2-yl)amino)-4-(trifluoromethyl)pyridazin-3(2H)-one] |
| < 100 | N#Cc1ccc(N2CCC(N3CC[C@H](OCCNc4cn[nH]c(=O)c4C(F)(F)F)C3=O)CC2)nc1 [Example 36B] |
| < 100 | C[C@@H](CO[C@H]1C(=O)N(C2CCN(c3ncc(C(F)(F)F)cn3)CC2)C[C@@H]1C)Nc1cn[nH]c(=O)c1C(F)(F)F [Example 37B, 5-(((S)-1-(((3R,4S)-4-methyl-2-oxo-1-(1-(5-(trifluoromethyl)pyrimidin-2-yl)piperidin-4-yl)pyrrolidin-3-yl)oxy)propan-2-yl)amino)-4-(trifluoromethyl)pyridazin-3(2H)-one] |
| < 100 | C[C@@H](CO[C@@H]1CCN(C2CCN(c3cnc(C(F)(F)F)cn3)CC2)C1=O)Oc1cn[nH]c(=O)c1Br [Example 46B, 4-bromo-5-(((S)-1-(((R)-2-oxo-1-(1-(5-(trifluoromethyl)pyrazin-2-yl)piperidin-4-yl)pyrrolidin-3-yl)oxy)propan-2-yl)oxy)pyridazin-3(2H)-one] |
| < 100 | C[C@@H](CO[C@@H]1CCN(C2CCN(c3ncc(C(F)(F)F)cn3)CC2)C1=O)Oc1cn[nH]c(=O)c1Cl [Example 47B, 4-chloro-5-(((S)-1-(((R)-2-oxo-1-(1-(5-(trifluoromethyl)pyrimidin-2-yl)piperidin-4-yl)pyrrolidin-3-yl)oxy)propan-2-yl)oxy)pyridazin-3(2H)-one] |
| < 100 | C[C@@H](CO[C@H]1CCN(C2CCN(c3ccc(C#N)cn3)CC2)C1=O)Oc1cn[nH]c(=O)c1Br [Example 48B] |
| 100 to 1000 | Cc1cnc(N2CCC(N3CC[C@H](OC[C@H](C)Oc4cn[nH]c(=O)c4C(F)(F)F)C3=O)CC2)nc1 [Example 49A, 5-(((S)-1-(((S)-1-(1-(5-methylpyrimidin-2-yl)piperidin-4-yl)-2-oxopyrrolidin-3-yl)oxy)propan-2-yl)oxy)-4-(trifluoromethyl)pyridazin-3(2H)-one] |
| < 100 | COC[C@@H](CO[C@@H]1CCN(C2CCN(c3ncc(C(F)(F)F)cn3)CC2)C1=O)Oc1cn[nH]c(=O)c1C(F)(F)F [Example 51B, 5-(((S)-1-methoxy-3-(((R)-2-oxo-1-(1-(5-(trifluoromethyl)pyrimidin-2-yl)piperidin-4-yl)pyrrolidin-3-yl)oxy)propan-2-yl)oxy)-4-(trifluoromethyl)pyridazin-3(2H)-one] |
